The nature of series [1]: Inhibitory concentration against CDK2/ Cyclin A.
Series [2] addresses Cyclin-dependent kinase 2/cyclin E1 (Homo sapiens, UniProt P24941). The series is described as follows: Inhibitory concentration against CDK2/ Cyclin E. The format is protein-complex assay.
The target in series [3] is Cyclin-dependent kinase 4/cyclin D1 (Homo sapiens, UniProt P11802). The series is described as follows: Inhibitory concentration against CDK4/ Cyclin D. Type of series: protein-complex assay.
Cyclin-dependent kinase 4/cyclin D1, sequence (P11802 whole entry): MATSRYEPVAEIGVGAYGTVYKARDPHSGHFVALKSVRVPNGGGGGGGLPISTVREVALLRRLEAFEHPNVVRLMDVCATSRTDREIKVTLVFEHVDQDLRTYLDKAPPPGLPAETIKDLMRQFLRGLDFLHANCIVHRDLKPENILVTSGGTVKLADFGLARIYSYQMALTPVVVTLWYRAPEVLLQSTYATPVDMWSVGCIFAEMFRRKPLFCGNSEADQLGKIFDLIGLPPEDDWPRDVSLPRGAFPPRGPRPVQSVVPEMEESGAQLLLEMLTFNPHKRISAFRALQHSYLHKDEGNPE
Cyclin-dependent kinase 4/cyclin D1, sequence (P24385 whole entry, further chain): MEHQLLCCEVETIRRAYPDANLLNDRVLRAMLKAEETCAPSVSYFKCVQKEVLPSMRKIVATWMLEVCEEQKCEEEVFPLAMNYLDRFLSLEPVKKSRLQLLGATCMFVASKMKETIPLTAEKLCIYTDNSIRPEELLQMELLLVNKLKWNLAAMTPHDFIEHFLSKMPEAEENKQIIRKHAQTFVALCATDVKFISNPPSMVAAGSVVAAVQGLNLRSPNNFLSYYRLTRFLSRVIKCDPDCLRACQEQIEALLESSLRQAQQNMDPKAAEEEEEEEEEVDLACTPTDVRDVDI
The target of series [4] is Cyclin-dependent kinase 1/cyclin B1 (Homo sapiens, UniProt P06493). The series can be described thus: Inhibitory concentration against CDK1/ Cyclin B. The format is protein-complex assay.
Cyclin-dependent kinase 1/cyclin B1, sequence (P06493 whole entry): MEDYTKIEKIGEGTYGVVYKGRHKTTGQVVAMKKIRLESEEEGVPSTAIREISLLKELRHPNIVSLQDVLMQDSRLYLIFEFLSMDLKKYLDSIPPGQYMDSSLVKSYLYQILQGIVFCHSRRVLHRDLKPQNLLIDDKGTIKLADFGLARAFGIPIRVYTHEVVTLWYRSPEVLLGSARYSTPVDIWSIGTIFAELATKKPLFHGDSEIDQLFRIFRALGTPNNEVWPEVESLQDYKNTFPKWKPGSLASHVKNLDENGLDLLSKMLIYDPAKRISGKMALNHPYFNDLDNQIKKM
Cyclin-dependent kinase 1/cyclin B1, sequence (P14635 whole entry, further chain): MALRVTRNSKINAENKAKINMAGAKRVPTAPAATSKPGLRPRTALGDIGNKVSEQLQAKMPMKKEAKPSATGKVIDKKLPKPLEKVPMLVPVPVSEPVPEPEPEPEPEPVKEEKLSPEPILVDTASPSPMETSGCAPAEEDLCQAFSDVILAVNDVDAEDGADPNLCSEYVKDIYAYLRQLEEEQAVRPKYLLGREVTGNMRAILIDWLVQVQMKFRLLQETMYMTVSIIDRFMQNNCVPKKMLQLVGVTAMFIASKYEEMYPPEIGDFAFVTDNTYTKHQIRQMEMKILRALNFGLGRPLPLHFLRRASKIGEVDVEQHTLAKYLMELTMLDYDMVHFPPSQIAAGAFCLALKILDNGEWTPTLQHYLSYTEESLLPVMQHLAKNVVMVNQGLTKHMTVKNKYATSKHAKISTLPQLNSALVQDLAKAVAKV
The subject of another series is HCT-116. The series is described as follows: Antiproliferative activity against HCT116 cell lines of human. The format is functional, cell-based.
Series [5] can be described thus: Distribution coefficient at pH 7.4. Type of series: physicochemical. The conditions noted are these: octanol/water.

Usually IC50 stands for the concentration that gives 50% inhibition. Read a low IC50 as greater potency in that assay. Turning to `Oc1ccc2cnc(Nc3ccc(N4CCNCC4)cc3)nc2c1C1CCCC1`, the IC50 in series [1] came out at 82 nM; in series [2], 320 nM; in series [3], 1 nM; in series [4], 30 nM.

On to `COc1ccc2cnc(Nc3ccc(N4CCNCC4)c(F)c3)nc2c1C(C)C`, for which the IC50 was 141 nM in series [1], 655 nM in series [2], 7 nM in series [3] and 743 nM in series [4].

With `COc1ccc2cnc(Nc3ccccc3)nc2c1C1CCCC1`, the IC50 was 202 nM in series [1], 650 nM in series [2], 166 nM in series [3] and 801 nM in series [4].

With `COc1ccc2cnc(Nc3ccc(N4CCN(C(C)=O)CC4)cc3)nc2c1C1CCCC1`, the IC50 in series [4] is above 5000 nM.

Regarding `Oc1ccc2cnc(Nc3ccc(N4CCNCC4)c(F)c3)nc2c1C1CCCC1`, the IC50 was 112 nM in series [1], 270 nM in series [2], 1 nM in series [3] and 761 nM in series [4].

`COc1ccc2cnc(Nc3ccccc3)nc2c1C(C)C` yielded a half-inhibitory concentration (IC50) in series [1] of 253 nM.

One may read the logD as lipophilicity at a set pH, counting ionised and neutral species. Low readings indicate a more hydrophilic compound, high ones a more lipophilic compound. In the case of `Cc1cc(O)c(C2CCCC2)c2nc(Nc3ccc(N4CCNCC4)cc3)ncc12`, the IC50 in series [1] is above 5000 nM; in series [2] it was above 5000 nM; in series [3], 20 nM; with HCT-116, 100 nM; in series [4] it was above 5000 nM. The logD in series [5] amounted to 1.39.

In turn, `CC(C)c1c(O)ccc2cnc(Nc3ccccc3)nc12` had an IC50 in series [1] of 250 nM.

For the compound `COc1ccc2cnc(Nc3ccc(N4CCCC4)cc3)nc2c1C(C)C`, the IC50 in series [1] is 1600 nM; in series [2], above 5000 nM; in series [4], above 5000 nM.

In the case of `COc1cc(C)c2cnc(Nc3ccc(N4CCNCC4)cc3)nc2c1C1CCCC1`, the IC50 is above 5000 nM in series [1], above 5000 nM in series [2], 55 nM in series [3] and above 5000 nM in series [4]. This compound gave a logD in series [5] of 2.32.

Compound `Cc1cc(=O)n(C2CCCC2)c2nc(Nc3ccc(N4CCNCC4)cc3)ncc12` came in with a logD in series [5] of 0.63. In addition, in series [4], the IC50 was above 5000 nM.

Take `COc1cc(C)c2cnc(Nc3ccc(N4CCN(C(C)=O)CC4)cc3)nc2c1C1CCCC1`: the IC50 in series [1] was above 5000 nM; in series [2], above 5000 nM; in series [3], 4130 nM; in series [4], above 5000 nM. The same compound registered a logD in series [5] of 3.77.

In turn, `COc1ccc2cnc(Nc3ccc(N4CCN(C(=O)CN)CC4)cc3)nc2c1C1CCCC1` gave an IC50 in series [1] of 95 nM.

For the compound `COc1ccc2cnc(Nc3ccc(N4CCNCC4)cc3)nc2c1C(C)C`, 185 nM corresponded to half-maximal inhibition in series [1] (IC50).

`COc1ccc2cnc(Nc3ccc(N4CCOCC4)cc3)nc2c1C(C)C` had an IC50 in series [1] of 665 nM.

With `Oc1ccc2cnc(Nc3ccc(N4CCOCC4)cc3)nc2c1C1CCCC1`, the IC50 in series [1] was determined as 180 nM; in series [2] it was 635 nM; in series [3], 3 nM; in series [4], 1940 nM.

Regarding `COc1ccc2cnc(Nc3ccc(N4CCCCC4)cc3)nc2c1C1CCCC1`, the IC50 is 384 nM in series [1], above 5000 nM in series [2] and above 5000 nM in series [4].

For `COc1ccc2cnc(Nc3ccc(N4CCC(N)C4)cc3)nc2c1C(C)C` (stereo unspecified), half-maximal inhibition in series [1] (IC50) required 296 nM.

`COc1ccc2cnc(Nc3ccc(N4CCNCC4)cc3)nc2c1C1CCCC1` registered an IC50 in series [1] of 28 nM.

`COc1ccc2cnc(Nc3ccc(N4CCOCC4)cc3)nc2c1C1CCCC1` gave an IC50 in series [1] of 384 nM.

With `COc1ccc2cnc(Nc3ccc(N4CCCC4)cc3)nc2c1C1CCCC1`, the IC50 in series [1] and in series [4] was above 5000 nM throughout.

Consider `COc1ccc2cnc(Nc3ccc(N4CCNCC4)c(F)c3)nc2c1C1CCCC1`, for which 62 nM corresponded to half-maximal inhibition in series [1] (IC50).

For `COc1ccc2cnc(Nc3ccc(N4CCCCC4)cc3)nc2c1C(C)C`, the IC50 is 410 nM in series [1] and above 5000 nM in series [4].

`COc1ccc2cnc(Nc3ccc(N4CCC(N)C4)cc3)nc2c1C1CCCC1` (stereo unspecified): the IC50 was determined as 203 nM in series [1] and 775 nM in series [2].

Regarding `COc1ccc2cnc(Nc3ccc(N4CCN(C(=O)CN)CC4)cc3)nc2c1C(C)C`, inhibition in series [1] was half-maximal at 191 nM (IC50).
